Laboratory results reported in patent publication US6632829B2, “Sulfonamides and derivatives thereof that modulate the activity of endothelin” (Texas Biotechnology Corp., priority 1996, dated 2003).

Columns and labels:
human ETA receptors = biological target: T1, human ETA receptors (Homo sapiens, UniProt P25101); assay: Endothelin binding inhibition, Binding Test #1: competition with 125I-ET-1 for ETA receptors on TE 671 cell membranes
T1 construct: endogenous in cells; host or cells: TE 671 cells (ATCC HTB 139), membrane preparation
T1 sequence (P25101 21-427): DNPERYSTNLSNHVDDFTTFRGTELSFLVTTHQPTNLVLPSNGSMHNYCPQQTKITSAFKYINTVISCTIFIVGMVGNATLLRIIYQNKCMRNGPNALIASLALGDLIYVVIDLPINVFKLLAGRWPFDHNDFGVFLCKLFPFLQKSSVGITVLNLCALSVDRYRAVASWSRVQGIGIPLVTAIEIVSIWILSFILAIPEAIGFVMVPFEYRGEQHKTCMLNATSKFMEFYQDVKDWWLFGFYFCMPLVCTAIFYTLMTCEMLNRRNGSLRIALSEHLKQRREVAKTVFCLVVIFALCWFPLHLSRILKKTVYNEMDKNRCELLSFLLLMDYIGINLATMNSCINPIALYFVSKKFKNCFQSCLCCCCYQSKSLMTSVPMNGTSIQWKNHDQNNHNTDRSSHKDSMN

human ETB receptor = biological target: T2, human ETB receptor (Homo sapiens, UniProt P24530); assay: Endothelin binding inhibition, Binding Test #2: competition with 125I-ET-1 for ETB receptors on transfected COS7 cell membranes
T2 construct: expressed in transfected cells; host or cells: COS7 cells
T2 sequence (P24530 27-442): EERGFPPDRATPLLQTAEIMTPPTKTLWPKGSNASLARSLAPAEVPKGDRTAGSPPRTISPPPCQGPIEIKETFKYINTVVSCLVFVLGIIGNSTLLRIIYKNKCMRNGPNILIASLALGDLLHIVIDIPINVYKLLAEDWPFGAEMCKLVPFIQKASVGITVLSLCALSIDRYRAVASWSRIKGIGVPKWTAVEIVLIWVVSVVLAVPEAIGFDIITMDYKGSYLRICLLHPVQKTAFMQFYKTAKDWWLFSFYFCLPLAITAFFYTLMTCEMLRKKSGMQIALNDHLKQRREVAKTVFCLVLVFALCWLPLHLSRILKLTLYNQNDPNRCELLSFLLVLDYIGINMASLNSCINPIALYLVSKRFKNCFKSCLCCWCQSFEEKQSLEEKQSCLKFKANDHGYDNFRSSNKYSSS
Summary of the method: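 Membranes from COS7 cells transfected with human ETB receptor, prepared in HEPES pH 7.4 with aprotinin, MnCl2/DNase treatment at 37° C for 30 min. Test compounds compete with 125I-labeled ET-1 for receptor binding; membrane used at 1 μg/50 μL binding buffer.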

[1] = incubation at 24° C. (values marked †)
[2] = incubation at 4° C. (values without †)

Row | IC50 (human ETA receptors; [1]) [µM] | IC50 (human ETB receptor; [1]) [µM] | IC50 (human ETA receptors; [2]) [µM] | IC50 (human ETB receptor; [2]) [µM] | inhibition at 100 µM (human ETB receptor; read-out: ETB % inhibition @ 100 μM, @ 100 μM, incubation at 24° C.) [%] | SMILES
1 | 13 | 0.76 | – | – | – | Cc1noc(NS(=O)(=O)c2ccsc2COc2ccc3c(c2Cl)OCO3)c1Br [N-(4-bromo-3-methyl-5-isoxazolyl)-2-[(2-chloro-3,4-methylenedioxy)phenoxymethyl]thiophene-3-sulfonamide]
2 | 12.3 | 1.28 ± 0.71 | 3.46 | 0.529 | – | Cc1noc(NS(=O)(=O)c2csc(-c3ccccc3C=O)c2)c1Br [N-(4-bromo-3-methyl-5-isoxazolyl)-5-(2-formylphenyl)thiophene-3-sulfonamide]
3 | ~0.3 | ~0.7 | – | – | – | Cc1noc(NS(=O)(=O)c2ccsc2C(=O)Cc2cc3c(cc2C#N)OCO3)c1Cl [N-(4-chloro-3-methyl-5-isoxazolyl)-2-[2-cyano-4,5-(methylenedioxy)phenylacetyl]thiophene-3-sulfonamide]
4 | 4.41 | – | – | – | 31 | Cc1noc(NS(=O)(=O)c2ccsc2C(=O)Oc2ccccc2)c1Cl [N-(4-chloro-3-methyl-5-isoxazolyl)-2-(phenoxycarbonyl)thiophene-3-sulfonamide]
5 | 0.158 | 63.1 | – | – | – | COc1ccc(NC(=O)c2sccc2S(=O)(=O)Nc2onc(C)c2Cl)c(OC)c1 [N-(4-chloro-3-methyl-5-isoxazolyl)-2-[(2,4-dimethoxyphenyl)aminocarbonyl]thiophene-3-sulfonamide]
6 | 0.027 | 0.14 | – | – | – | COc1ccc(NC(=O)c2sccc2S(=O)(=O)Nc2onc(C)c2Cl)c(C)c1 [N-(4-chloro-3-methyl-5-isoxazolyl)-2-[4-methoxy-2-methylphenyl)aminocarbonyl]thiophene-3-sulfonamide]
7 | 0.0273 | 12.2 | – | – | – | Cc1noc(NS(=O)(=O)c2ccsc2C(=O)Cc2ccc3c(c2)OCO3)c1C [N-(3,4-dimethyl-5-isoxazolyl)-2-[3,4-(methylenedioxy)phenylacetyl]thiophene-3-sulfonamide]
8 | 0.1 | 60.3 | – | – | – | Cc1ccc(-c2ccsc2S(=O)(=O)Nc2onc(C)c2Br)c(C)c1 [N-(4-bromo-3-methyl-5-isoxazolyl)-3-(2,4-dimethylphenyl)thiophene-2-sulfonamide]
9 | 0.0555 | 3.48 | – | – | – | Cc1ccc(CCc2sccc2S(=O)(=O)Nc2onc(C)c2Br)c(C)c1 [N-(4-bromo-3-methyl-5-isoxazolyl)-2-(2,4-dimethylphenethyl)thiophene-3-sulfonamide]
10 | 0.55 | 52.6 | – | – | – | Cc1noc(NS(=O)(=O)c2c(-c3ccc4c(c3)OCO4)sc3ccccc23)c1Cl [N-(4-chloro-3-methyl-5-isoxazolyl)-2-[3,4-(methylenedioxy)phenyl]benzo[b]thiophene-3-sulfonamide]
11 | ~2 | 2.39 | – | – | – | COc1ccc2c(S(=O)(=O)Nc3onc(C)c3Cl)c(Cc3ccc4c(c3)OCO4)sc2c1 [N-(4-chloro-3-methyl-5-isoxazolyl)-6-methoxy-2-[3,4-(methylenedioxy)benzyl]benzo[b]thiophene-3-sulfonamide]
12 | 0.23 | 6.2 | – | – | – | Cc1noc(NS(=O)(=O)c2ccsc2C(=O)OCCc2ccc3c(c2)OCO3)c1Cl [N-(4-chloro-3-methy-5-isoxazolyl)-2-[2-(3,4-methylenedioxyphenyl)]ethoxycarbonyl-3-sulfonamide]
13 | 1.64 | 22.8 | – | – | – | Cc1ccc(OCc2ccsc2S(=O)(=O)Nc2onc(C)c2Br)cc1 [N-(4-bromo-3-methyl-5-isoxazolyl)-3-[(4-methylphenoxy)methyl]thiophene-2-sulfonamide]
14 | 0.048 | 1.1 | – | – | – | CCc1ccc(Cc2sc3ccccc3c2S(=O)(=O)Nc2onc(C)c2Br)cc1 [N-(4-bromo-3-methyl-5-isoxazolyl)-2-(4-ethylbenzyl)benzo[b]thiophene-3-sulfonamide]
15 | 0.0016 | 11.3 | – | – | – | Cc1cc(C)c(NC(=O)c2sccc2S(=O)(=O)Nc2onc(C)c2Cl)c(C)c1 [N-(4-chloro-3-methyl-5-isoxazolyl)-2-(2,4,6-trimethylphenylaminocarbonyl)thiophene-3-sulfonamide]
